Reference: patent US12377171B2, “Methods for treating and diagnosing blinding eye diseases” (Translatum Medicus Inc., priority 2012, dated 2025)
Entries after “also recorded” stand apart in the source; their conditions may differ.

Test system: circulating macrophage/monocyte population
Assay: Monocyte/macrophage depletion with gadolinium chloride in the NaIO3 model
Format: in vivo, rat
Source text: To determine the identity of the autofluorescent cells that coincide with the reticular pattern of FAF, excised retina were stained for with markers of the innate immune system, avoiding the 488 nm channel. Iba1 is a pan-microglial/macrophage marker and in the rat retina; antibodies against it identify the major phagocytic cell populations. […] Further, when compared against photoreceptor nuclear staining, this curvilinear pattern is seen to lie interposed between folds of the deformed ONL. This pattern of Iba1^+ cells corresponds with the pattern of hyperfluorescence observed in vivo by FAF imaging, and with the pattern of autofluorescent cells in excised retina. […] Importantly, at 7 days after NaIO3, all RPE cells are absent from the posterior eye cup, confirming that these cells cannot be responsible for the observed FAF. Also, identification of the autofluorescent cells as phagocytic was confirmed by comparison of imaging to preparations in which monocyte/macrophage depletion has been undertaken. Such depletion was achieved by treatment with gadolinium chloride (GAD). […]

## [Cl][Gd]([Cl])[Cl] [GAD, gadolinium chloride]
7 days after NaIO3 and simultaneous GAD depletion
  area of damage: smaller areas of damage
GAD-treated vs untreated, after NaIO3
  FAF pattern of NaIO3-induced outer retinal damage: far less well defined reticular patterns of FAF; also recorded: profound alteration of the NaIO3-induced pattern of FAF and DNIRA; also recorded: less well-demarcated borders
